In US20110118120A1, “SYNERGISTIC HERBICIDAL COMPOSITION CONTAINING AMINOPYRALID AND SULFONYLUREAS” (Dow AgroSciences LLC, priority 2009, published 2011):

System: milk thistle (Sonchus oleraceus; SONOL)
Experiment: Postemergence herbicidal activity of mixtures under field conditions (percent visual weed control)
Type: in vivo
Conditions: postemergence foliar, spring wheat
Description: These trials were conducted under field conditions in Northern New South Wales, Australia. Trials sites were located in commercially grown fields of spring wheat (Triticum aestivum). The wheat crop was grown using normal cultural practices for fertilization, seeding, and maintenance to ensure good growth of the crop and the weeds. The trial was conducted using normal research methodology. Trial plots were marked out measuring 3 meters (m) by 10 m. All treatments were applied using a randomized complete block trial design with 4 replications per treatment. The trial sites had naturally occurring populations of weeds present. The weed spectrum included, but was not limited to, milk thistle (Sonchus oleraceus; SONOL); wire-weed (Polygonum aviculare; POLAV); turnip weed (Rapistrum rugosum; RASRU); Medick, Medicago spp. (MEDSS); Patersons curse (Echium plantagineum; EPHIL). The weeds were treated with postemergence foliar applications when they were between cotyledons and 8 true leaves.
Treatments consisted of tank mixes of soluble granules of aminopyralid potassium salt and commercially available formulations of metsulfuron-methyl (Ally™ herbicide, water dispersible granules) and MCPA iso-octyl (emulsifiable concentrate). The ‘carrier’ application volume was using 100 liters per hectare (L/ha) of water. […]

| SMILES | % Control SONOL Ob (percent control observed) (Aminopyralid 3.75 g ae/ha alone) [%] | % Control SONOL Ob (percent control observed) (Metsulfuron 3 g ai/ha alone) [%] |
| --- | --- | --- |
| Nc1cc(Cl)nc(C(=O)O)c1Cl [Aminopyralid, aminopyralid] | 18 | – |
| COC(=O)c1ccccc1S(=O)(=O)NC(=O)Nc1nc(C)nc(OC)n1 [Metsulfuron, metsulfuron-methyl] | – | 29 |
